US5705693A, “Cationic lipids” (Gilead Sciences, Inc., priority 1995, dated 1998)

What was measured:
[1] = Transfection of Caco-2 cells with ODN1 using 34 (Example 12); type: cell-based, human; conditions: human, caco-2 cells; Caco-2, 5.0 μg lipid; read-out: toxicity
Experimental: (§1) Preparation of lipid-nucleic acid complexes and cell transfection.
(§2) SK-BR-3, Caco-2, Caov-3 and MCF7 cells were transfected with ODN1 using 34 which was prepared as described in Example 5 using a 1:1 molar ratio of DOPE colipid. The sonicated lipid-colipid mixture (1 mL of a 2.5, 5 or 10 μg/mL suspension) was mixed with 250 pmole ODN1 and allowed to stand […] at room temperature […] before adding 1 mL of the lipid-ODN1 complex to the cells. The lipid-ODN1 complex was removed from the cells after 6 hours by washing the cells twice in PBS, followed by observing the cells in serum-containing medium immediately after removing the lipid-ODN1 complex.

Caco-2 cells = assay: as above; type: cell-based, human; conditions: 6 h, 1:1 DOPE
Experimental: as §1, §2

[2] = Transfection of Caov-3 cells with ODN1 using 34 (Example 12); type: cell-based, human; conditions: human, caov-3 cells; Caov-3, 10.0 μg lipid; read-out: toxicity
Experimental: as §1, §2

Caov-3 cells = assay: as above; type: cell-based, human; conditions: 6 h, 1:1 DOPE
Experimental: as §1, §2

MCF7 cells = assay: Transfection of MCF7 cells with ODN1 using 34 (Example 12); type: cell-based, human; conditions: 6 h, 1:1 DOPE
Experimental: as §1, §2

SK-BR-3 cells = assay: Transfection of SK-BR-3 cells with ODN1 using 34 (Example 12); type: cell-based, human; conditions: 6 h, 1:1 DOPE
Experimental: as §1, §2

CV-1 cells [3] = assay: Transfection of CV-1 cells with CAT RNA (Example 16); type: cell-based, African green monkey; conditions: 2.5 μg RNA, 5 μg lipid, 24 h, DMEM 10% FBS or Optimem
Experimental: CV-1 cells were transfected for 24 hours with RNA encoding chloramphenicol acetyltransferase (CAT). The transfections used 2.5 μg of RNA, 5 μg of 34 and DMEM with 10% FBS or Optimem™ with no serum. CAT activity was measured by immunofluorescence staining using fluorescent labeled anti-CATantibodies (5',3'Inc.). The cells were observed as previously described (Wagner, Science (1993) 260:1510).

T antigen = assay: Antisense inhibition of T antigen expression in CV-1 cells with ODN2A (Example 19); type: cell-based, African green monkey
Experimental: ODN2A, which was ODN2 lacking the fluorescent label at the 3' terminus, was used as an antisense oligonucleotide to inhibit T antigen expression in CV-1 cells using the protocol previously described (Wagner Science (1993) 260:1510-1513). CV-1 cells were transfected for 18 hours using 5 μg of 34 (1:1 molar ratio with DOPE colipid) and then cell nuclei were microinjected with T antigen plasmid using a needle concentration of 0.003 μg/mL of T antigen plasmid (ibid at page 1513, first column, note 5) and 0.025 μg/mL of β-galactosidase plasmid. The cells were scored for T antigen expression 4.5 hours after removing the transfection preparation from the cells. The cells were immunostained for β-galactosidase expression as an internal control for microinjected cells and the proportion of cells expressing both T antigen and β-galactosidase was determined.

cells [4] = assay: Amount of fluorescently labeled oligonucleotide delivered versus commercially available lipids; type: cell-based; conditions: observed fluorescence intensity, estimated
Excerpt: The difference in transfection efficiency between lipids described herein and commercially available lipids is usually most pronounced when the transfections are done in the presence of medium containing serum. The amount of polyanion delivered into cells was estimated to be about 2- to 100-fold greater for lipids 30, 34 and 35 based on the observed fluorescence intensity of transfected cells after transfection using a fluorescently labeled oligonucleotide. The cationic lipids described herein also transfect some cell types that are not detectably transfected by commercial lipids, particularly where the transfection is conducted in the presence of serum.

cells [5] = assay: Transfection with filtered preparations; type: cell-based; conditions: 1:1 DOPE, sonicated
Experimental: The invention cationic lipids 30 or 34 and DOPE colipid (1:1) were prepared by sonication and then filtered using 200, 100 or 50 nm filters to obtain particles less than about 200 nm in diameter, less than about 100 nm and less than about 50 nm. […] The 50 nm filtered preparations were about 40-50% as efficient as the preparations containing larger particles. The size of the particles or miscelles in a given preparation will vary depending on the preparation method. Sonicating cationic lipid-colipid mixtures will provide smaller miscelles and vortexing will provide larger miscelles (Felgner J. Biol. Chem. (1994) 269:2550-2561). Such miscelles are believed to transfer the polyanion into the cytoplasm of a eukaryotic or prokaryotic cell by pinocytosis, endocytosis and/or by direct fusion with the plasma membrane.

CV-1 cells [6] = assay: Transfection of CV-1 cells with five 35:DOPE preparations (Example 20); type: cell-based, African green monkey; conditions: 35:DOPE 2:1, 1 μg lipid, 6 h, 10% FBS; in words
Experimental: Lipid complexes consisting of 35:DOPE (2:1 molar ratio) were prepared as follows. Two molar equivalents of 35 in CHCl3 and one equivalent of DOPE in CHCl3 was dried under reduced pressure by rotovap at room temperature. Deionized water was then added to give 1 mg/mL of total lipid. 10 mL of water containing 10 mg of lipid was vortexed for 5 minutes in a 100 mL round bottom flask. 2 mL aliquots were then used to prepare lipid suspensions for complexing with ODN1. The first preparation was obtained by directly using the vortexed 2 mL aliquot to prepare complexes with ODN1. The second preparation was obtained by 6 cycles of freezing on dry ice and thawing in a 37° C. water bath (Baxter, Dura Bath). The third preparation was obtained by placing a culture tube containing the lipid into a Ultra Sonik 100 (NEY) sonicator and the preparation was sonicated for 30 minutes at room temperature using the probe tip at maximum power. The fourth preparation was obtained by 6 cycles of freezing on dry ice and thawing in a 37° C. water bath, followed by filtering the suspension through a Lipofast™ 100 nm filter according to the manufacturer's instructions to obtain complexes less than about 100 nm in diameter. The fifth preparation was obtained by sonication for 10 minutes in a sonication bath followed by 5 sonication pulses for 15 seconds each with a probe sonicator (Sonifier 250, Branson Ultrasonics). […]

[7] = Transfection of CV-1 cells with ODN1 and toxicity (Example 22); type: cell-based, African green monkey; conditions: monkey, cv-1 cells; 10.0 μg lipid
Experimental: (§3) Lipids 35, 52, 54 and 55 were each prepared using a 2:1 lipid:DOPE molar ratio as follows. Two molar equivalents of each lipid in CHCl3 and one equivalent of DOPE in CHCl3 was dried under reduced pressure by rotovap at room temperature. Deionized water was then added to give 1 mg/mL of total lipid. 10 mL of water containing 10 mg of lipid was vortexed for 5 minutes in a 100 mL round bottom flask. 2 mL aliquots were then used to prepare lipid suspensions for complexing with ODN1. Each preparation was obtained by 6 cycles of freezing on dry ice and thawing in a 37° C. water bath.

CV-1 cells [8] = assay: as above; type: cell-based, African green monkey; conditions: for % cells transfected: 2:1 DOPE, 6 h, 10% FBS, 250 pmole ODN1
Experimental: as §3

cdc-2 kinase = assay: cdc-2 antisense oligonucleotide analog transfection, Western blot (Example 22); type: cell-based, African green monkey; conditions: 30 nM cdc-2 antisense oligonucleotide analog, 2.5 and 5.0 μg lipid
Excerpt: The oligonucleotide contained 5-(1-propynyl)cytosine in place of cytosine and 5-(1-propynyl)uracil in place of uracil. A control oligonucleotide analog having a mismatched base sequence was also used to check for any non-specific effect on cdc-2 kinase levels in the transfected cells caused by the oligonucleotide analog. A control containing only lipid was also used as a control. […] Protein levels were examined by Western blot analysis.

SMILES: CCCCCCCCCCCCCCCCCCN(CCCCCCCCCCCCCCCCCC)C(=O)CNC(=O)[C@@H](N)CCCNC(=N)NC(=O)OC(C)(C)C [Compound 34]
- cytotoxicity at 6 h [1]: < 10%
- % transfected (Caco-2 cells; Caco-2, 2.5 μg lipid): < 5%
- % transfected (Caco-2 cells; Caco-2, 5.0 μg lipid): 10-15%
- % transfected (Caco-2 cells; Caco-2, 10.0 μg lipid): 0%
- cytotoxicity at 6 h [2]: < 10%
- % transfected (Caov-3 cells; Caov-3, 2.5 μg lipid): 20%
- % transfected (Caov-3 cells; Caov-3, 5.0 μg lipid): 20%
- % transfected (Caov-3 cells; Caov-3, 10.0 μg lipid): 61%
- % transfected (MCF7 cells; MCF7, 2.5 μg lipid): 30-50%
- % transfected (MCF7 cells; MCF7, 5.0 μg lipid): 83%
- % transfected (MCF7 cells; MCF7, 10.0 μg lipid): 80%
- % transfected (SK-BR-3 cells; SK-BR-3, 2.5 μg lipid): 60-70%
- % transfected (SK-BR-3 cells; SK-BR-3, 5.0 μg lipid): > 90%
- % transfected (SK-BR-3 cells; SK-BR-3, 10.0 μg lipid): > 90%
- cells expressing CAT (CV-1 cells [3]): 1-2%
- efficiency in delivering ODN2A into cells compared with Lipofectin (T antigen; 5 μg, 1:1 DOPE, 18 h, ODN2A needed to inhibit T antigen expression to an equal extent): about 10 fold
- delivery of antisense oligomer (T antigen; in words): efficiently delivered the antisense oligomer into the cells without interfering with the capacity of the oligonucleotide to inhibit gene (protein) expression
- amount of polyanion delivered into cells relative to commercially available lipids (cells [4]): 2- to 100 fold
- transfection efficiency of 50 nm filtered preparations relative to larger particles (cells [5]; 50 nm filter): 40-50%
- transfection efficiency of 200 nm or 100 nm filtered preparations (cells [5]; in words): the most efficient (and equally efficient)

SMILES: CCCCCCCCCCCCCCN(CCCCCCCCCCCCCC)C(=O)CNC(=O)[C@@H](N)CCCNC(=N)NC(=O)OC(C)(C)C [Compound 35]
- transfection of CV-1 cells, all preparations (CV-1 cells [6]): efficiently transfected CV-1 cells
- cytotoxicity at 6 h [7]: > 40%
- % cells transfected (CV-1 cells [8]; 1 μg lipid): 40%
- % cells transfected (CV-1 cells [8]; 2.5 μg lipid): 85%
- % cells transfected (CV-1 cells [8]; 5.0 μg lipid): 100%
- % cells transfected (CV-1 cells [8]; 10.0 μg lipid): 60%
- uniformity of cell staining (CV-1 cells [8]; footnote, in words): relatively uniformly stained
- cdc-2 protein levels (cdc-2 kinase): efficiently reduced cdc-2 protein levels
- amount of polyanion delivered into cells relative to commercially available lipids (cells [4]): 2- to 100 fold
